# Results taken from paper PMC8185074, “Anchor extension: a structure-guided approach to design cyclic peptides targeting enzyme active sites” (Nature Communications, 2021).
# Where two headings read alike, the source gives them in different places. Peptide text beside a SMILES is read from it.
# Molecular target: T1, HDAC2 (Homo sapiens, UniProt Q92769)
# T1 construct: purchased Reaction Biology Corporation (assay run by the CRO)
# Assay: Initial HDAC2 IC50 estimate (BPS Biosciences HDAC fluorogenic assay kit)
# Format: biochemical
# Settings: Supplementary Dataset 2
# Method: Initial IC50 values were estimated using HDAC fluorogenic assay kits from BPS Biosciences (HDAC2, HDAC4, and HDAC6) following the protocol described in the kit. All the measures were performed in duplicates or triplicates. These measurements were done either on full range of concentrations (1:10 dilution from 1 µM to 100 pM) or on two concentrations only (20 nM and 200 nM) as an estimate of the range. […] Source Data are provided as a Source Data file.
# [1] = HDAC2 activity (initial activity)
# T1 sequence (Q92769 whole entry): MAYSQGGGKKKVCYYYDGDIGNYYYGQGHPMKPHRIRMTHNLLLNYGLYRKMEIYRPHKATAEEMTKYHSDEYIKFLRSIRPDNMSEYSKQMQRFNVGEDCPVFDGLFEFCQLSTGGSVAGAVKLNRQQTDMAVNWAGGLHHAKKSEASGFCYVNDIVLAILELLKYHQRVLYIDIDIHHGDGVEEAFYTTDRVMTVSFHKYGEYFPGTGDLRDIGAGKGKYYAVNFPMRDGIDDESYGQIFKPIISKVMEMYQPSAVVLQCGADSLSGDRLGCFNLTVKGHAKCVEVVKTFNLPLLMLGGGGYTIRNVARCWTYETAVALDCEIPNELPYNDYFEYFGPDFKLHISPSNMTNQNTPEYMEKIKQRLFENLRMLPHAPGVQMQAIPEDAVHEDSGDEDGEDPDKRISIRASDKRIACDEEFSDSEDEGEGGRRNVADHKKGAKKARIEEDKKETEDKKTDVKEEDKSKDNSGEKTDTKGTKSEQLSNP
Structure (SMILES),IC50 (read-out: HDAC2 activity (initial activity)),IC50 [1]
"CCCC[C@H]1NC(=O)[C@@H](CCCCN)NC(=O)[C@H](CCCCCS)NC(=O)[C@@H](C)NC(=O)[C@H](CCCNC(=N)N)NC(=O)[C@@H]([C@H](C)O)NC(=O)[C@@H](CC(N)=O)NC(=O)[C@H](CCC(=O)O)NC1=O [des1.2.0, SHA-dLys-dNle-Glu-dAsn-dThr-Arg-dAla] (HELM PEPTIDE1{E.[dN].[dT].R.[dA].[O=C([C@H](CCCCCS)N[*:1])[*:2]].[dK].[CCCC[C@@H](N[*:1])C(=O)[*:2]]}$PEPTIDE1,PEPTIDE1,1:R1-8:R2$$$V2.0)",100000 nM,–
"C[C@H]1NC(=O)[C@H](CCCNC(=N)N)NC(=O)[C@@H](CC(N)=O)NC(=O)[C@@H](CC(N)=O)NC(=O)[C@H](CCC(=O)O)NC(=O)[C@@H](CC(=O)O)NC(=O)[C@@H](CC(N)=O)NC(=O)[C@H](CCCCCS)NC1=O [des1.3.0, SHA-dAsn-dAsp-Glu-dAsn-dAsn-Arg-dAla] (HELM PEPTIDE1{E.[dN].[dN].R.[dA].[O=C([C@H](CCCCCS)N[*:1])[*:2]].[dN].[dD]}$PEPTIDE1,PEPTIDE1,1:R1-8:R2$$$V2.0)",–,1000 nM
"CC(C)C[C@H]1NC(=O)[C@H](Cc2c[nH]c3ccccc23)NC(=O)[C@H](CCCCCS)NC(=O)[C@@H](Cc2ccc(O)cc2)NC(=O)[C@@H]([C@H](C)O)NC(=O)[C@H](Cc2c[nH]cn2)NC(=O)CNC(=O)[C@H]2CCCN2C(=O)[C@@H](CO)NC1=O [des2.2.2, SHA-Trp-dLeu-dSer-dPro-Gly-His-dThr-dTyr] (HELM PEPTIDE1{G.H.[dT].[dY].[O=C([C@H](CCCCCS)N[*:1])[*:2]].W.[dL].[dS].[dP]}$PEPTIDE1,PEPTIDE1,1:R1-9:R2$$$V2.0)",–,500 nM
